For data set [1], the target named is GAPDH (Homo sapiens, UniProt P04406). The note with it: covalent bond with active-site cysteine; cited from earlier work.
In data set [2] the target is T1, MCT1 (Homo sapiens, UniProt P53985).
T1 construct: endogenous in cells; host or cells: wild type KBM7 cells (near-haploid human cell line)
T1 sequence (P53985 1-500): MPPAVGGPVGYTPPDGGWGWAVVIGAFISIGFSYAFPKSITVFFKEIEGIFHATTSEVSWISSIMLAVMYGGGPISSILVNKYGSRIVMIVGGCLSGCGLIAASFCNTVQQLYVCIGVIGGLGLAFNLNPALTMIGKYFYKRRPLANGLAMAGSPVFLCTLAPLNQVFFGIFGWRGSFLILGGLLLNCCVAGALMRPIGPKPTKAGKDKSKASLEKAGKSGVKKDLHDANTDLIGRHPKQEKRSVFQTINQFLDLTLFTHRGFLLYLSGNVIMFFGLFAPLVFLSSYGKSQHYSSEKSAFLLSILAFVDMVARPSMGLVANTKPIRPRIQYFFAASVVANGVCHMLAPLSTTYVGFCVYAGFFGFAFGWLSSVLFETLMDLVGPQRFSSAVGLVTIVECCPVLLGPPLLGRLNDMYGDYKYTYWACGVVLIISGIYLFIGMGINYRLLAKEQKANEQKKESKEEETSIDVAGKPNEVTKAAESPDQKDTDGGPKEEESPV
T1 sequence (P35613 140-385 partner limits assumed): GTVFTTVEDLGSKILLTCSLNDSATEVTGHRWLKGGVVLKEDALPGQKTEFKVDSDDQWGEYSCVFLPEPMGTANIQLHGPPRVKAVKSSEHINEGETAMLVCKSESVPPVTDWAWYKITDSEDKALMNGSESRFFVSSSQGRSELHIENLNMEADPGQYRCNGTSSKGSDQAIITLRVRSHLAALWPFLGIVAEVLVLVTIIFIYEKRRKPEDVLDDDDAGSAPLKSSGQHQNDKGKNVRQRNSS
The data set can be described thus: 14C-3-BrPA uptake assay, wild type KBM7 cells. Type of data set: cell-based. The conditions noted are these: wild type KBM7 in HBSS, up to 20 minutes, unlabeled competitor. The protocol: Wild type KBM7 or MCT1-null cells were seeded in HBSS and exposed for up to 20 minutes to 100 μM ^14C-labeled 3-BrPA (6.8 mCi/mmole) (Moravek) with or without competitor molecules like 3-BrPA, Pyruvate, L-Lactate and D-Lactate. Cells were washed with cold HBSS, lysed in a NaOH buffer, and uptake measured using a liquid scintillation counter.

The test system of data set [3] is MCT1. The note with it: cited from earlier work.

Chain of GAPDH (P04406 whole entry, species assumed): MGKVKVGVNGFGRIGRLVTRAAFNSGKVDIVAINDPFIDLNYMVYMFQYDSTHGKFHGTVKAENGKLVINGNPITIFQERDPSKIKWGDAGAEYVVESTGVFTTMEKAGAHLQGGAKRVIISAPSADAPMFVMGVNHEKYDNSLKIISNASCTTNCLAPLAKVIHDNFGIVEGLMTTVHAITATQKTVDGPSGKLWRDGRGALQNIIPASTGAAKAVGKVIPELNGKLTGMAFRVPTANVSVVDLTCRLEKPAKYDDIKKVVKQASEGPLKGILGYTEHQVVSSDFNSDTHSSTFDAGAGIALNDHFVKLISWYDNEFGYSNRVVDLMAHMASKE

For `CC1=C[C@@]23C(COC(=O)C24CO4)C(C(=O)O)=CC3[C@@H]1C` (some centres unmarked) [Pentalenolactone], the “inhibition of GAPDH” value in data set [1] was “potently inhibit”.

Regarding `CC(C)C1CC[C@@]2(CO2)[C@H]2C(=O)OCC(C(=O)O)=C[C@H]12` (some centres unmarked) [koningic acid], the “inhibition of GAPDH” value in data set [1] was “potently inhibit”. `CC(O)C(=O)O` (centres unmarked) [lactate]: the “competition with the uptake of radiolabeled 3-BrPA” value in data set [2] is reported as “to a lesser extent”. In the case of `N#C/C(=C\c1ccc(O)cc1)C(=O)O` [α-cyano-4-hydroxycinnamate (CHC), α-cyano-4-hydroxycinnamate], the antitumor effect result in data set [3] (alone or in combination with radiotherapy in mice) is on record as “potent antitumor affects”. Also, in data set [3] (mice), the toxicity entry was “without exerting overt toxicity”.

These data come from patent publication US20140142180A1, “METHODS OF TREATING TUMORS HAVING ELEVATED MCT1 EXPRESSION” (Whitehead Institute for Biomedical Research, priority 2012, published 2014).
